{
  "source": "patent US11896604B2",
  "about": "“Composition comprising HMSs/HMOs and use thereof” (Glycom A/S, priority 2014, dated 2024)",
  "key": {"[1]": {"tested_on": "human LS174T cell culture model of goblet cells", "experiment": "Mucosal barrier function: goblet cell gene expression by quantitative RT-PCR", "format": "cell-based", "details": "5 mg HMO/ml, compared to control cultures", "description": "2′-FL and LNnT are tested with respect to their ability to induce MUC2, TFF3, EIMβ, CHST5, and GAL3ST2 expression in the human LS174T cell culture model of goblet cells. The human LS174T cell line is obtained from the American Type Culture Collection (ATCC). LS174T cells are maintained in minimum essential medium (MEM) supplemented according to instructions at 37° C. in 5% CO2. 2′-FL and LNnT are dissolved in cell culture grade water to the required concentration. The LS174T cells are treated with the HMO solution containing 0 or 5 mg HMO/ml. The LS174T cells are collected and suspended in Trizol reagent and total RNA is isolated using an RNA analysis kit (Qiagen) according to the manufacturer's instructions and the RNA isolates are quantified using Nanodrop analysis (Thermo Fisher Scientific). RNA isolates are reverse transcribed using a high capacity cDNA Reverse Transcription Kit (Applied Biosystems) to create cDNA, which is then used to assess gene expression via quantitative RT-PCR. For the quantitative RT-PCR, specific TaqMAN gene expression assays are obtained from Applied Biosystems, which include expression assays for MUC2, TFF3, CHST5 and GAL3ST2. Quantitative real-time PCR is performed using TaqMAN PCR Master Mix (Applied Biosystems). Reactions are run in duplicates in a 384-well plate using an Applied Biosystems 7900HT Fast Real-Time PCR System. The results are analysed using SDS 2.3 software and calculated by delta delta Ct method. All samples are normalized to Gus-β expression and fold induction is calculated over untreated controls. Gene expression is expressed as fold increase compared to HMO-free control cells. The experiment is repeated three times."}, "IBS-D patients": {"tested_on": "IBS-D patients", "details": "cited from earlier work"}},
  "data": [
    {"compound": "CC(=O)N[C@H]1[C@H](O[C@H]2[C@@H](O)[C@@H](CO)O[C@@H](O[C@H]3[C@H](O)[C@@H](O)C(O)O[C@@H]3CO)[C@@H]2O)O[C@H](CO)[C@@H](O[C@@H]2O[C@H](CO)[C@H](O)[C@H](O)[C@H]2O)[C@@H]1O", "note": "(mixture of isomers) [LNnT, lacto-N-neotetraose]", "values": [
      {"measurement": "expression of the MUC2 gene", "setting": "[1]", "value": "increases"},
      {"measurement": "expression of the TFF3 gene", "setting": "[1]", "value": "increases"},
      {"measurement": "induction of CHST5", "setting": "[1]", "value": "minimal induction"},
      {"measurement": "induction of GAL3 ST2", "setting": "[1]", "value": "lack of induction"}
    ]},
    {"compound": "CO[C@H]1/C=C/O[C@@]2(C)Oc3c(C)c(O)c4c(O)c(c5c(nc6cc(C)ccn65)c4c3C2=O)NC(=O)/C(C)=C\\C=C\\[C@H](C)[C@H](O)[C@@H](C)[C@@H](O)[C@@H](C)[C@H](OC(C)=O)[C@@H]1C", "note": "[rifaximin]", "values": [
      {"measurement": "bowel movement", "setting": "IBS-D patients", "value": "reduce"}
    ]},
    {"compound": "2′-fucosyllactose [2′-FL]", "values": [
      {"measurement": "expression of the MUC2 gene", "setting": "[1]", "value": "increases"},
      {"measurement": "expression of the TFF3 gene", "setting": "[1]", "value": "increases"},
      {"measurement": "induction of CHST5", "setting": "[1]", "value": "minimal induction"},
      {"measurement": "induction of GAL3 ST2", "setting": "[1]", "value": "lack of induction"}
    ]}
  ]
}
